Source: patent US5907038A, “Azepanes” (Hoffmann-La Roche Inc., priority 1995, dated 1999)
Counter-ions that a name gives are not always drawn.

Tests used:
[1] = target: cAMP-dependent protein kinase (PKA); assay: Inhibition of cAMP-dependent protein kinase (PKA); format: biochemical; settings: partially purified PKA from swine brain; histone H1 substrate; cyclic AMP activation; 32° C., 2 minutes; read-out: IC50 (Test Procedure B)
Procedure: B: Inhibition of cAMP-dependent protein kinase (PKA): PKA activity is determined by measuring the transfer of ^32 P-labelled phosphate from ^32 P-g-ATP ([…]) to histone H1 ([…]) as the substrate. Partially purified PKA from swine brain is used as the enzyme source [DEAE chromatography according to the method of U. Kikkawa et al. (Methods Enzymol. 99, 288, 1983)]. Activation of the PKA is effected by cyclic AMP (2 mM) in Tris-HCl buffer (20 mM, pH 7.4). The test substances are used in dimethyl sulfoxide (DMSO)/buffer in the concentration range […]. The test is started by the addition of enzyme; after incubation at 32° C. for 2 minutes the reaction is stopped by the addition of 20% trichloroacetic acid (with 1% SDS and 1% sodium pyrophosphate). The precipitated radioactive histone protein is separated from excess ATP by filtration over nitrocellulose membranes and the radioactivity on the filter is measured in a scintillation counter. The inhibitory activity of the test substance is given as the micromolar concentration which is required to reduce the PKA activity by 50% ([…]).

protein kinase C (PKC) = assay: Inhibition of protein kinase C (PKC) (isolated enzyme); format: biochemical; settings: partially purified PKC from swine brain; histone H1 substrate; 32° C., 2 minutes; read-out: IC50 (Test Procedure A)
Procedure: A: Inhibition of protein kinase C (PKC) (isolated enzyme): Protein kinase C (PKC) activity is determined by measuring the transfer of ^32 P-labelled phosphate from ^32 P-g-ATP ([…]) to histone H1 ([…]) as the substrate. Partially purified PKC from swine brain is used as the enzyme source [DEAE chromatography according to the method of U. Kikkawa et al. (Methods Enzymol. 99, 288, 1983)]. Activation of the PKC is effected by phospholipid vesicle prepared by ultrasound treatment of a mixture of 0.05 ml of phosphatidylserine (10 mg/ml) and 0.005 ml of diolein (10 mg/ml) in 5 ml of Tris-HCl buffer (20 mM, pH 7.4). The test substances are used in dimethyl sulphoxide (DMSO)/buffer in the concentration range […]. The test is started by the addition of enzyme; after incubation at 32° C. for 2 minutes the reaction is stopped by the addition of 20% trichloroacetic acid (with 1% SDS and 1% sodium pyrophosphate). The precipitated radioactive histone protein is separated from excess ATP by filtration over nitrocellulose membranes and the radioactivity on the filter is measured in a scintillation counter. The inhibitory activity of the test substance is given as the micromolar concentration which is required to reduce the PKC activity by 50% ([…]).

Mouse Hair Follicle = assay: Cell proliferation in cultured mouse hair follicles (3H-thymidine incorporation, DNA synthesis); format: cell-based, mouse (CD-1); settings: for Emax: 3H-thymidine incorporation as percentage of control, whisker follicles of 4-day-old CD-1 mice, read-out: Mouse Hair Follicle DNA Synthesis Maximal Stimulation; for EC50: concentration giving 50% of the maximal stimulation of DNA synthesis
Procedure: C: Cell proliferation in cultured mouse hair follicles Mouse whisker follicles were isolated and cultured according to the method described by Buhl et al., J. Invest. Dermatol. 92, 315-320 (1989). Whisker pads were removed from 4-day-old CD-1 mice and vibrissae were carefully separated from the surrounding tissue with forceps under a dissecting microscope. Four hair follicles were incubated at 37° C. in 2 cm^2 wells in 1 ml of M199 medium containing 20% fetal bovine serum, in the presence or absence of test compound at varying concentrations. Each treatment group consisted of four wells. After 1 day of culture. ^3 H-thymidine was added to the wells to a final concentration of 5 μCi/ml and the follicles were incubated for a further three days. The follicles were then washed with phosphate-buffered saline and incorporated radioactivity was solubilized by addition of 0.5 ml of 1.0M NaOH and incubation for 18 h at 37° C. An aliquot of the alkali extracted was taken for measurement of radioactivity and results were expressed as dpm/follicle. Calculation of maximal stimulation and ED50 values The hair follicle ^3 H-thymidine incorporation values (dpm/follicle), obtained as described above, were then expressed as a percentage of control levels as follows: % control DNA synthesis for test compound=((treatment dpm/follicle)/(control dpm/follicle))×100 The dose-response relationship for each compound was then used to determine: 1) the maximal stimulation of DNA synthesis obtained for that compound, expressed as a percentage of control levels, and 2) the ED50 value, or the concentration (μM) of compound that gave rise to 50% of the maximal stimulation of DNA synthesis.

| SMILES | IC50 [1] | IC50 (protein kinase C (PKC)) | Emax (Mouse Hair Follicle) | EC50 (Mouse Hair Follicle) |
| --- | --- | --- | --- | --- |
| CN(C(=O)c1ccccc1O)c1ccc(C(=O)O[C@@H]2CCCNC[C@H]2NC(=O)c2ccc(O)cc2)cc1 [I/25, 4-[(2-Hydroxy-benzoyl)-methyl-amino]-benzoic acid (3R,4R)-3-(4-hydroxy-benzoylamino)-azepan-4-yl ester trifluoroacetate (1:1)] | 1.9 µM | 26 µM | – | – |
| O=C(N[C@@H]1CNCCC[C@H]1OC(=O)c1ccc(S(=O)(=O)Oc2ccccc2O)cc1)c1ccc(O)cc1 [I/28, 4-(2-Hydroxy-phenoxysulfonyl)-benzoic acid (3R,4R)-3-(4-hydroxy-benzoylamino)-azepan-4-yl ester hydrochloride (1:1)] | – | – | 349 ± 25% | 40 µM |
| O=C(N[C@@H]1CNCCC[C@H]1OC(=O)c1ccc(O)cc1)c1ccc(OC(=O)c2c(O)cccc2O)cc1 [II/1, 4-Hydroxy-benzoic acid (3R,4R)-3-[4-(2,6-dihydroxy-benzoyloxy)-benzoylamino]-azepan-4-yl ester trifluoroacetate (1:1)] | 0.038 µM | 30 µM | 468 ± 26% | 10 µM |

The next lines start with results.

| IC50 [1] | IC50 (protein kinase C (PKC)) | SMILES | Emax (Mouse Hair Follicle) | EC50 (Mouse Hair Follicle) |
| --- | --- | --- | --- | --- |
| 0.07 µM | 8.8 µM | O=C(N[C@@H]1CNCCC[C@H]1OC(=O)c1ccc(O)c(O)c1)c1ccc(O)cc1 [I/15, 3,4-Dihydroxy-benzoic acid (3R,4R)-3-(4-hydroxy-benzoylamino)-azepan-4-yl ester trifluoroacetate (1:1)] | – | – |
| 0.041 µM | 24 µM | COc1cc2c(O)cccc2cc1C(=O)O[C@@H]1CCCNC[C@H]1NC(=O)c1ccc(O)cc1 [I/19, 5-Hydroxy-3-methoxy-naphthalene-2-carboxylic acid (3R,4R)-3-(4-hydroxy-benzoylamino)-azepan-4-yl ester trifluoroacetate (1:1)] | 371 ± 50% | 30 µM |
| 0.026 µM | 10 µM | O=C(N[C@@H]1CNCCC[C@H]1OC(=O)c1ccc(O)cc1)c1ccc(O)cc1 [III/1, 4-Hydroxy-benzoic acid (3R,4R)-3-(4-hydroxy-benzoylamino)-azepan-4-yl ester hydrochloride (1:1)] | 534 ± 52% | 5 µM |
